Assay results taken from ChEMBL document CHEMBL3045481, “Insecticide-induced resurgence of the whitebacked planthopper Sogatella furcifera (Horvath) (Hemiptera: Delphacidae) on rice varieties with different levels of resistance” (Crop Prot, 2011).
Active and inactive are the calls of the source. The calls are words filed in the database; no cut-off is given here.

Tests used:
Sogatella furcifera [1] = assay: Insecticidal activity against Sogatella furcifera on insect-sensitive rice plant ARC6248 assessed as growth index at 0.0018% concentration (reference value: 2.38%); format: functional
Sogatella furcifera [2] = assay: Insecticidal activity against Sogatella furcifera on insect-resistanct rice plant PR116 assessed as growth index at 0.0018% concentration (reference value: 6.02%); format: functional
Sogatella furcifera [3] = assay: Insecticidal activity against Sogatella furcifera on insect-resistanct rice plant PR116 assessed as reproduction at 0.0018% concentration; format: functional, organism-based
Sogatella furcifera [4] = assay: Insecticidal activity against adult Sogatella furcifera on insect-sensitive rice plant ARC6248 assessed as high mortality at 0.0035% concentration; format: functional, organism-based
Sogatella furcifera [5] = assay: Insecticidal activity against adult Sogatella furcifera on insect-resistanct rice plant PR116 assessed as high mortality at 0.0035% concentration; format: functional, organism-based
Sogatella furcifera [6] = assay: Insecticidal activity against Sogatella furcifera on insect-sensitive rice plant ARC6248 assessed as resurgence ratio at 0.100% concentration; format: functional
Sogatella furcifera [7] = assay: Insecticidal activity against Sogatella furcifera on insect-resistanct rice plant PR116 assessed as resurgence ratio at 0.100% concentration; format: functional
Sogatella furcifera [8] = assay: Insecticidal activity against Sogatella furcifera on insect-sensitive rice plant ARC6248 assessed as reproduction at 0.0018% concentration; format: functional, organism-based
Sogatella furcifera [9] = assay: Insecticidal activity against Sogatella furcifera on insect-sensitive rice plant ARC6248 assessed as nymphal survival at 0.0018% concentration (reference value: 34.17%); format: functional
Sogatella furcifera [10] = assay: Insecticidal activity against Sogatella furcifera on insect-resistanct rice plant PR116 assessed as nymphal survival at 0.0018% concentration (reference value: 70.28%); format: functional
Sogatella furcifera [11] = assay: Insecticidal activity against Sogatella furcifera on insect-sensitive rice plant ARC6248 assessed as nymphal duration at 0.0018% concentration (reference value: 14.48 days); format: functional
Sogatella furcifera [12] = assay: Insecticidal activity against Sogatella furcifera on insect-resistanct rice plant PR116 assessed as nymphal duration at 0.0018% concentration (reference value: 11.75 days); format: functional

O=[N+]([O-])/N=C1\NCCN1Cc1ccc(Cl)nc1 [IMIDACLOPRID]
growth inhibition (GI) (Sogatella furcifera [1]): 2.48%
growth inhibition (GI) (Sogatella furcifera [2]): 5.91%
inhibition (Sogatella furcifera [3]): inactive
inhibition (Sogatella furcifera [4]): Active
inhibition (Sogatella furcifera [5]): Active
Ratio (Sogatella furcifera [6]): <1
Ratio (Sogatella furcifera [7]): <1
inhibition (Sogatella furcifera [8]): inactive
Survival (Sogatella furcifera [9]): 35.56%
Survival (Sogatella furcifera [10]): 69.72%
Time (Sogatella furcifera [11]): 14.46 days
Time (Sogatella furcifera [12]): 11.85 days
